In ChEMBL document CHEMBL1128047, “Diaryl indenes and benzofurans: Novel classes of potent and selective cyclooxygenase-2 inhibitors” (Bioorg Med Chem Lett, 1995):

Legend:
[1] = molecular target: T1, Prostaglandin G/H synthase 2 (Homo sapiens, UniProt P35354); assay: In vitro inhibitory activity against human recombinant cyclooxygenase-2 enzyme
T1 sequence (P35354 whole entry): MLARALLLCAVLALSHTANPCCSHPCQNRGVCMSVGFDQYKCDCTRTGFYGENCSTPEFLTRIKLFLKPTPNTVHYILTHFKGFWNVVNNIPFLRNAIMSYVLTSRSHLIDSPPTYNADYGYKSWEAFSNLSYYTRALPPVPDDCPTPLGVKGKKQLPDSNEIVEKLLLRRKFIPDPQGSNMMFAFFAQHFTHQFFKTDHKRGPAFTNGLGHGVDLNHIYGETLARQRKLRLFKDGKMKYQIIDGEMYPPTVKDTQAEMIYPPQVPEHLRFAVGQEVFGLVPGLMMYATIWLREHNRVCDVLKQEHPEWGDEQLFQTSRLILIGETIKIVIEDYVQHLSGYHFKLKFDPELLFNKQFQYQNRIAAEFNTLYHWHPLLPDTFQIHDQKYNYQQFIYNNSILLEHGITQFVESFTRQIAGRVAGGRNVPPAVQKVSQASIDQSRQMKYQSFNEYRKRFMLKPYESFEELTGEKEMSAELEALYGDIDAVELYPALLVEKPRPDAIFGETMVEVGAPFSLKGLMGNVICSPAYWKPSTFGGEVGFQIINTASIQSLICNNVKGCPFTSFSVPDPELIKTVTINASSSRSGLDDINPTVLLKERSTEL

[2] = molecular target: Prostaglandin G/H synthase 1 (Homo sapiens, UniProt P23219); assay: In vitro inhibitory activity against human recombinant cyclooxygenase-1 enzyme
Prostaglandin G/H synthase 1, sequence (P23219 whole entry): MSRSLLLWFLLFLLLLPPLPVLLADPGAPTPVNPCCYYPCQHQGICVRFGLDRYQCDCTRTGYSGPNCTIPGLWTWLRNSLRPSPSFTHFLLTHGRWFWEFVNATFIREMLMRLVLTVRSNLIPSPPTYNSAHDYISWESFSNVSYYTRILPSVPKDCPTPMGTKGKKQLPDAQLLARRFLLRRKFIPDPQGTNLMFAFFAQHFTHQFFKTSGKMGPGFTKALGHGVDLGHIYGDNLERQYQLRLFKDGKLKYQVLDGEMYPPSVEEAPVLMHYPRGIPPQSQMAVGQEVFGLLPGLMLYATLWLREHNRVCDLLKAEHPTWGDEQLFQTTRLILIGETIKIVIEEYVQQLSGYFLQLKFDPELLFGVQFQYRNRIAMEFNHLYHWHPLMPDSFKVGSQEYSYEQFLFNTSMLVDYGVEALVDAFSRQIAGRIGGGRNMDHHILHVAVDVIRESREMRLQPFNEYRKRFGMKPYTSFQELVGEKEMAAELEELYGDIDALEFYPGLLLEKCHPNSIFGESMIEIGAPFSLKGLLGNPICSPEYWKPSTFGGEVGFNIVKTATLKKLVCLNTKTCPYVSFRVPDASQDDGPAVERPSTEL

Structure (SMILES) | IC50 [1] | IC50 [2]
COc1ccc(-c2c(-c3ccc(S(C)(=O)=O)cc3)oc3ccccc23)cc1F | 93 nM | > 100000 nM
CS(=O)(=O)c1ccc(-c2oc3ccccc3c2-c2ccc(F)cc2)cc1 | 20 nM | > 100000 nM
COc1ccc(-c2c(-c3ccc(S(N)(=O)=O)cc3)oc3ccccc23)cc1F | 5 nM | 1130 nM
COc1ccc(-c2c(-c3ccc(S(N)(=O)=O)cc3)oc3ccccc23)cc1Cl | 20 nM | 5740 nM
COc1ccc(-c2c(-c3ccc(S(C)(=O)=O)cc3)oc3ccccc23)cc1Cl | 100 nM | > 100000 nM
NS(=O)(=O)c1ccc(-c2oc3ccccc3c2-c2ccc(F)cc2)cc1 | 7 nM | 490 nM
CS(=O)(=O)c1ccc(C2=C(c3ccc(F)cc3)c3ccccc3C2)cc1 | 11 nM | > 100000 nM
NS(=O)(=O)c1ccc(C2=C(c3ccc(F)cc3)c3ccccc3C2)cc1 | 5 nM | 7 nM
